From publication PMC10299677, “Fluorinated Benzofuran and Dihydrobenzofuran as Anti-Inflammatory and Potential Anticancer Agents” (International Journal of Molecular Sciences, 2023)

Columns and labels:
CCL2 mRNA = assay: LPS-dependent CCL2 mRNA in THP-1-derived macrophages (RT-PCR); type: cell-based, human; settings: 50 µM, 10 ng/ml LPS 6 h
Method: F i g u re S3: Eff ect of benzofuran compounds on the lev els of LP S -dependent mRNA of CCL2 and IL-6 in THP-1 –deriv ed macrophages. Human-monoc yti c cell l ine-THP-1 wer e treat ed with PMA (25 nM for 48 hours) th en in cub ated with 50 μM compounds for 30 minutes b efo re the addit ion of 10 ng/ml LP S fo r 6 hours. Gene ex pression of IL6 and CCL2 were measur ed by RT-PCR and the v alu es wer e nor mal ized to GAPDH. Results represent means ± SEM by one way ANOVA followed by Dunnett test.

Bcl-2 = Bcl-2 protein expression in HCT116 (Western blot); type: cell-based, human; settings: 10, 25 and 50 µM, 72 h
Method: Macrophages were incubated with the compounds for 30 min prior to the addition of 10 ng/mL LPS for 24 h. Protein levels for COX-2 and NOS2 were detected in LPS-stimulated macrophages. As previously described, 10 µg of total protein was assessed. The primary antibodies were developed and characterized as previously described: for COX-2, mouse monoclonal antibody anti-COX-2 (clone COX-214, 1/5000); for NOS2, rabbit polyclonal antibody anti-NOS2 (dilution1/2000 [33]). Antibodies anti-phospho-NF-κB (3033S), phospho-IκBα (9246S), and total IκBα (4814S) were from Cell Signaling Technologies (Danvers, MA, USA). Total NF-κB C-20 (sc-372) was from Santa Cruz Biotechnologies (Dallas, TX, USA), and mouse β-actin (dilution 1/10,000) (Sigma-Aldrich, A5441). Clarity™ western ECL substrate (Bio-Rad Laboratories 10-5061) was used according to the manufacturer’s instructions to reveal positive bands visualized using Bio-Rad ChemiDoc. For Bcl-2 and cleaved PARP-1, HCT116 cells were plated in 6-well plates (200,000 cells per well) for 24 h, and treated with compounds 1 and 2 at 10, 25, and 50 µM for 72 h. Supernatants and cells were collected and lysed using RIPA lysis buffer containing inhibitors of protease. […]

[1] = Toxicity on macrophages (BMDM), WST-1 assay; type: cell-based, C57BL/6J mice; settings: C57BL/6J, mouse, bone marrow-derived macrophages (BMDM), read-out: macrophage viability
Method: WST-1 assay (Sigma-Aldrich, 5015944001) was used to determine the toxicity of the synthesized compounds on BMDM and HCT116 (ATCC, CCL-247), kindly provided by Dr. Nadine Darwiche, Department of Biochemistry and Molecular Genetics, American University of Beirut, Lebanon. Briefly, macrophages (50,000 cells per well) and HCT116 (20,000 cells per well) were plated in a 96-well plate in RPMI 1640 culture medium containing 10% fetal bovine serum (FBS) and grown for 24 h. Cells (in triplicates) were treated with 10 or 50 μM of the compounds for macrophages, and 50 or 100 μM for HCT116. Culture medium without cells and cells without treatment were used as basal and maximal activity, respectively. Results were expressed as percentage of cells without treatment.
F i g u re S1: E ff e c t of fluorin at ed benzofuran derivatives on m acrophages
viabilit y. C ells in cub at ed with 10 and 50 μM of benzofuran d eri vativ es
(compounds 1 to 9) bel onging to groups І, II, III and IV for 24 hours. Cell
viabilit y w as det ermin ed by WST-1 assay. Non-t r eated m acrophages wer e used
as cont rol. Results were shown as mean ± SEM (n=3) . *p< 0.05 comp ar ed to the
vehicle –treated cells (basal), one-way ANOVA followed by Dunnett’s test.
(1 picture or pasted object on this page, not shown here)

Row | SMILES | effect on CCL2 mRNA levels (CCL2 mRNA) | expression of antiapoptotic protein Bcl-2 (Bcl-2) | viability at 24 h, 50 µM [1]
1 | O=C(O)/C=C1/Oc2ccc(Br)cc2C1(F)F [Compound 2] | decreased significantly | decreased | 
2 | COC(=O)/C=C1/Oc2ccc(Br)cc2C1(F)F [Compound 1] | decreased significantly | decreased | 50%
